Here are results for 18 molecules from US6221877A, “Substituted 4-phthalimidocarboxanilides as inhibitors of purine salvage phosphoribosyltransferases” (Regents of the University of California, priority 2000, dated 2001).

For one test, the target named is T1, T. foetus HGXPRT (Tritrichomonas foetus, UniProt P51900).
T1 construct: made in house; host or cells: E. coli strain SØ606 transformed with pBTfprt
T1 sequence (P51900 1-183): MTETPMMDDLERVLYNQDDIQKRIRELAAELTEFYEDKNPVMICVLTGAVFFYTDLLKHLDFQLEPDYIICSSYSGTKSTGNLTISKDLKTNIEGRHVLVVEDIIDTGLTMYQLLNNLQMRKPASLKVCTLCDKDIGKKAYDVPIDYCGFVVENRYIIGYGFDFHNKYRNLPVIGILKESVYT
The experiment in a line: Spectrophotometric enzyme assay, recombinant T. foetus HGXPRT. Conditions: for potency of combined 2-methyl / benzyl-substituted inhibitors relative to parent inhibitors: compared with Ia(4), Ia(5), Ia(6); for increase in affinity for T. foetus HGXPRT (lower IC50) compared to compound Ia(1): relative to compound Ia(1). In kind it is biochemical. As to the method: (§1) Enzyme Assays: Recombinant T. foetus HGXPRT and human HGPRT were isolated from E. coli strain S.O slashed.606, transformed with pBTfprt and pBAcprt expression plasmids, respectively (Chin, et al., Mol. Biochem. Parasitol. 63:221-229 (1994); Kanaaneh, et al., Eur. J. Biochem. 223:595-601 (1994)). Spectrophotometric enzyme assays were performed as described in Yuan, et al., Biochemistry 31:806-810 (1992). The compounds tested were dissolved in DMSO-d6, and concentrations were determined by integration of NMR peaks with methylene chloride as an internal standard. The concentration of DMSO in the assays was kept at 10%.

Test [1] concerns T. foetus strain kv1 trophozoites. The test is described as follows: Cell culture assay, in vitro growth of T. foetus. In kind it is cell-based, Tritrichomonas foetus. Particulars: for IC50: Tritrichomonas foetus. As to the method:
Cell Culture Assays: T. foetus strain kv1 trophozoites were cultivated in Diamond's TYM medium at 37° C. Cell densities in time samples were determined using a hemocytometer. The concentration of DMSO in culture medium was maintained at or below 1%, which had no apparent effect on cell growth.
Indeed, compound Ia(5)-induced inhibition of T. foetus growth was reversed by increasing the concentration of hypoxanthine in the growth medium. A minimum hypoxanthine concentration between 0.2 and 0.5 mM was required for the survival of the cells challenged with 5 μM of compound Ia(5). Hypoxanthine at concentrations>1 mM essentially abolished any inhibition of cell proliferation under these experimental conditions.

The target in a further test is T2, human HGPRT (Homo sapiens, UniProt P00492).
T2 construct: made in house; host or cells: E. coli strain SØ606 transformed with pBAcprt
T2 sequence (P00492 1-218): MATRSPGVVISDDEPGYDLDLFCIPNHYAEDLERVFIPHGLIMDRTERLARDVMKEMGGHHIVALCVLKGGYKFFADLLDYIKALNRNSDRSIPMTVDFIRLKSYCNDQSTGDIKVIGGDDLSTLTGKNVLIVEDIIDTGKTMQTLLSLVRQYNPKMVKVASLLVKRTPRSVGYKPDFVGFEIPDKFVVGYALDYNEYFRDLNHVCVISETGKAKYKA
The experiment in a line: Spectrophotometric enzyme assay, recombinant human HGPRT. Conditions: for IC50: Table 2, read-out: IC50, Human HGXPRT; for selectivity for T. foetus HGXPRT over human HGPRT: ratio of human HGPRT to T. foetus HGXPRT inhibition. It is filed as biochemical. As to the method: as §1

[2] abbreviates: Table 1, 10% DMSO, read-out: IC50, Inhibition of T. foetus HGXPRT.
The mark [3] stands for this setting: Table 1, Diamond's TYM medium, 37° C., DMSO at or below 1%, read-out: ED50, in vitro growth of T. foetus.
The mark [4] stands for this setting: read-out: IC50 values, T. foetus HGXPRT.

Entries after “also recorded” stand apart in the source; their conditions may differ. Like-named read-outs stand apart in the source and are kept apart here.

For the molecule `Cc1c(NC(=O)c2ccc3c(c2)C(=O)NC3=O)cccc1OCc1ccc(Cl)c(Cl)c1` [Ia(16)], the IC50 at T. foetus HGXPRT (setting [2]) is 9.3 µM. Moreover, the “potency of combined 2-methyl / benzyl-substituted inhibitors relative to parent inhibitors” value at T. foetus HGXPRT is listed as “less potency”.
Regarding `CCN(CC)S(=O)(=O)c1ccc(OC)c(NC(=O)c2ccc3c(c2)C(=O)NC3=O)c1` [Ib(1)], the IC50 on T. foetus HGXPRT (setting [2]) worked out at 33 µM; in test [1] (setting [3]), 39 µM.
In the case of `O=C(Nc1cccc(OCc2ccccc2I)c1)c1ccc2c(c1)C(=O)NC2=O` [Ia(10)], the IC50 on T. foetus HGXPRT (setting [2]) was 4.3 µM; on human HGPRT, over 50 µM; in test [1] (setting [3]), 5.1 µM. The “selectivity for T. foetus HGXPRT over human HGPRT” value (shortened to “selectivity for T. foetus HGXPRT”) on human HGPRT was “approximately 100 fold”.
As for `O=C(Nc1ccc(Cl)c(Cl)c1)c1ccc2c(c1)C(=O)NC2=O` [(4'-phthalimido)carboxamido-3,4-dichlorobenzene, reference compound], the “activity on HGXPRT compared with 5-[N-(3,4-dichlorophenyl)carbamoyl]-1,3-isobenzofurandione” value on T. foetus HGXPRT (comparison of the phthalimide with its phthalic anhydride analog) is “equally active”.
`O=C(Nc1cccc(OCc2cccc(I)c2)c1)c1ccc2c(c1)C(=O)NC2=O` [Ia(9)]: the IC50 on T. foetus HGXPRT (setting [2]) worked out at 8.9 µM.
`O=C(Nc1cccc(OCc2ccc(Br)cc2)c1)c1ccc2c(c1)C(=O)NC2=O` [Compound Ia(5), (4'-phthalimido)carboxamido-3-(4-bromobenzyloxy)-benzene]: the IC50 at T. foetus HGXPRT (setting [2]) is 1.5 µM; at human HGPRT it was 45 µM; in test [1] (read-out: ED50, growth of cultured T. foetus cells) it was 2.8 µM. Also, the Ki at T. foetus HGXPRT (competitive with respect to guanine, read-out: K (inhibition constant) with respect to guanine, T. foetus HGXPRT) was 0.49 µM. In addition, on T. foetus HGXPRT, the “increase in affinity for T. foetus HGXPRT (lower IC50) compared to compound Ia(1)” value stood at 10 fold. Further, at T. foetus HGXPRT (with respect to guanine), the “mode of inhibition of T. foetus HGXPRT” value is “competitive inhibitor; also recorded: competitive mode of inhibition”. At human HGPRT, the “selectivity for T. foetus HGXPRT” value is 30 fold. Besides, in test [1], the “concentration dependence of inhibition of T. foetus growth in culture” value is “concentration-dependent”. Further, the “hypoxanthine concentration that essentially abolished any inhibition of cell proliferation” value in test [1] (cells challenged with 5 μM of compound) is on record as over 1 mM. In test [1] (increasing hypoxanthine in the growth medium), the “reversal of growth inhibition by exogenous hypoxanthine” value is reported as “reversed”.
With `Cc1ccc(COc2cccc(NC(=O)c3ccc4c(c3)C(=O)NC4=O)c2)cc1` [Ia(6)], the IC50 at T. foetus HGXPRT (setting [2]) was found to be 1.7 µM. Besides, on T. foetus HGXPRT, the “increase in affinity for T. foetus HGXPRT (lower IC50) compared to compound Ia(1)” value was determined as 10 fold.
Turning to `O=C(Nc1cccc(OCc2c(Cl)cccc2Cl)c1)c1ccc2c(c1)C(=O)NC2=O` [Ia(13)], the IC50 at T. foetus HGXPRT (setting [2]) came to 12.1 µM.
Regarding `O=C(Nc1cccc2c1C(=O)NC2=O)c1ccc2c(c1)C(=O)NC2=O` [Id(1)], the IC50 on T. foetus HGXPRT (setting [4]) was found to be 5 µM.
Take `CN(Cc1ccccc1NC(=O)c1ccc2c(c1)C(=O)NC2=O)C1CCCCC1` [Ic(1)]: the IC50 at T. foetus HGXPRT (setting [2]) was 53 µM.
Regarding `COc1cc(COc2cccc(NC(=O)c3ccc4c(c3)C(=O)NC4=O)c2)cc(OC)c1` [Ia(7)], on T. foetus HGXPRT (setting [2]), the IC50 is 8.2 µM.
On the same count and under the same terms, to `Cc1cc(COc2ccccc2)cc(NC(=O)c2ccc3c(c2)C(=O)NC3=O)c1` [Ia(2), (4'-Phthalimido)Carboxamido-3-Methyl-5-Phenoxymethylbenzene] belongs 28 µM.
As for `O=C(Nc1cc(OCc2ccccc2)ccc1Cl)c1ccc2c(c1)C(=O)NC2=O` [Ia(3), (4'-Phthalimido)Carboxamido-3-Benzyloxy-6-Chlorobenzene], the IC50 on T. foetus HGXPRT (setting [2]) turned out to be 8 µM.
As to `O=C(Nc1cccc(OCc2ccccc2)c1)c1ccc2c(c1)C(=O)NC2=O` [Compound Ia(1)], the IC50 came to 16 µM at T. foetus HGXPRT (setting [4]) and 19 µM in test [1] (setting [3]).
For the molecule `O=C(Nc1cccc(OCc2ccc(Cl)c(Cl)c2)c1)c1ccc2c(c1)C(=O)NC2=O` [Compound Ia(12)], the IC50 at T. foetus HGXPRT (setting [2]) came to 3.5 µM; at human HGPRT, 24 µM; in test [1] (setting [3]) it was 4.6 µM. In addition, the “increase in affinity for T. foetus HGXPRT (lower IC50) compared to compound Ia(1)” value on T. foetus HGXPRT was about 5 fold.
With `O=C(Nc1cccc(OCc2cc(Cl)ccc2Cl)c1)c1ccc2c(c1)C(=O)NC2=O` [Ia(14)], the IC50 on T. foetus HGXPRT (setting [2]) stood at 7.1 µM.
In the case of `Cc1c(NC(=O)c2ccc3c(c2)C(=O)NC3=O)cccc1OCc1ccc(Br)cc1` [Ia(15)], the IC50 on T. foetus HGXPRT (setting [2]) stood at 5.2 µM. Also, on T. foetus HGXPRT, the “potency of combined 2-methyl / benzyl-substituted inhibitors relative to parent inhibitors” value is on record as “less potency”.
On to `Cc1c(NC(=O)c2ccc3c(c2)C(=O)NC3=O)cccc1OCc1ccccc1` [Ia(4)], for which the IC50 at T. foetus HGXPRT (setting [2]) was 3 µM; at human HGPRT, over 50 µM; in test [1] (setting [3]) it was 3.9 µM. Moreover, the “selectivity for T. foetus HGXPRT” value at human HGPRT is on record as “approximately 100 fold”.
